How the values were obtained:
[1] = system: rotenone-induced PD state; experiment: Pole test (body coordination and balance) in rotenone mouse model of PD; format: in vivo, male adult CD1 mice; details: hydroxytyrosol 10 mg/kg/day plus rotenone 5 mg/kg/day i.p., 28 days, relative to rotenone only
Bcl2 = experiment: Western blot on the mesencephalic region: Bcl2; parameters: species or system male adult CD1 mice
Experimental: (§1) In vitro testing was then carried out on the mesencephalic region, with respect to iNOS production, IkB-α, NF-κB, Bax, and Bcl2. Western blot analyses and corresponding bar graphs are presented in FIG. 5 (iNOS production, optical density normalized to β-actin), FIG. 6 (IkB-α, also normalized to β-actin), FIG. 7 (NF-κB, optical density normalized to lamin A/C), FIG. 8 (Bax, normalized to β-actin), and FIG. 9 (Bcl2, normalized to β-actin). In each case, the effect of hydroxytyrosol is marked.

iNOS production = experiment: Western blot on the mesencephalic region: iNOS; parameters: species or system male adult CD1 mice
Experimental: as §1

IkB-α = experiment: Western blot on the mesencephalic region: IkB-α; parameters: species or system male adult CD1 mice
Experimental: as §1

Bax = experiment: Western blot on the mesencephalic region: Bax; parameters: species or system male adult CD1 mice
Experimental: as §1

[2] = system: cells from the mesencephalic region; experiment: Histology of cells from the mesencephalic region, rotenone mouse model; format: in vivo, male adult CD1 mice; details: hydroxytyrosol-treated relative to rotenone-only ("vehicle") group
[3] = even at high concentrations; Auñon-Calles et al. (2013); cited from earlier work
endothelial cell = experiment: Endothelial cell based assay (pro-/anti-oxidant effect)
Excerpt: Without wishing to be bound by theory, it may be postulated that the removal of hydroxytyrosol from its original matrix and natural environment can result in adverse effects, and that at least some of the naturally occurring associated polyphenols are necessary to include in a therapeutic hydroxytyrosol formulation.

NF-κB = experiment: Western blot on the mesencephalic region: NF-κB; parameters: species or system male adult CD1 mice
Experimental: as §1

[4] = system: subject diagnosed with Parkinson's disease; experiment: Case of a Parkinson's subject given Olivenol Plus capsules (Example 1); format: in vivo, human; details: orally administered L-dopa for over three months before the polyphenol treatment, one subject
Experimental: The subject was given an olive polyphenol composition orally, in the form of two Olivenol Plus® capsules administered three times per day. As each capsule contains 12 mg olive polyphenols, including about 5 mg hydroxytyrosol, the daily dose given to the subject was 72 mg olive polyphenols, including 30 mg hydroxytyrosol.

Compound	pole test time to turn (orientation time), FIG. 1B [1]	pole test total time (orientation and complete descent), FIG. 1A [1]	Bcl2, normalized to β-actin, FIG. 9 (Bcl2)	iNOS production, optical density normalized to β-actin, FIG. 5 (iNOS production)	IkB-α, normalized to β-actin, FIG. 6 (IkB-α)	Bax, normalized to β-actin, FIG. 8 (Bax)	histologic injury score, FIG. 4 [2]	toxicity [3]	pro-oxidant / anti-oxidant effect (endothelial cell)	NF-κB, optical density normalized to lamin A/C, FIG. 7 (NF-κB)	improvement after treatment [4]
OCCc1ccc(O)c(O)c1 [hydroxytyrosol, 4-(hydroxyethyl)-1,2-benzene diol]	significantly lowers	significantly lowers	marked	marked	marked	marked	significantly reduces	no toxicity has been detected	pro-oxidant effect	marked	–
N[C@@H](Cc1ccc(O)c(O)c1)C(=O)O [L-dopa]	–	–	–	–	–	–	–	–	–	–	no noticeable improvement
